In patent US20200339953A1, “HEMATOPOIETIC STEM AND PROGENITOR CELL THERAPY” (priority 2010, published 2020):

Tests used:
[1] = tested on: Murine whole bone marrow (WBM) cells; experiment: Colony forming Unit Spleen at day 12 (CFU-S12) assay; assay type: in vivo, C57Bl/6 mice; details: 10 μM; for CFU-S12 number: WBM
Description: Colony forming Unit Spleen at day 12 (CFU-S12) assays were performed as described in North et al., Nature. 2007 Jun. 21; 447(7147):1007-11. […] After treatment, the cells were washed by centrifugation and resuspended in PBS for tail-vein injection into C57Bl/6 recipients (2×5/treatment) that had been previously lethally irradiated at 10.5Gy. 50,000 cells were injected per recipient. […]

[2] = tested on: CXCR4 cell-surface protein on CD34^+ cord blood cells; experiment: CXCR4 surface expression analysis by flow cytometry; assay type: cell-based, human; details: 10 μM; for CD34+ cord blood cells with detectable CXCR4 expression: 2 hours at 37° C.
Description: CD34^+ cord blood cells were treated with 10 μM 16,16-dimethyl PGE2 or DMSO in StemSpan media for 2 hours at 37° C. or for 1 hour at 4° C. After treatment, the cells were washed in StemSpan media, centrifuged for 10 minutes at 300× g and resuspended in StemSpan media containing cytokines (e.g., CC100) to promote CD34^+ cell survival and incubated at 37° C. for 1, 6 and 24 hours. After the 1, 6 or 24 hour incubation, cells were centrifuged and resuspended in staining media containing the Lineage cocktail, 1-FITC, […], CXCR4(CD184)-PE, and incubated on ice for 15 minutes. Fresh staining media was then added to the cells, and the cells were centrifuged at 300 g for 10 minutes, twice. The stained cells were acquired on a Guava EasyCyte 8HT and analysis was performed using FloJo Software Package (Treestar).
CXCR4 cell-surface expression is important for stem cell homing to the bone marrow hematopoietic niche. […] Cells were treated for 2 hours at 37 or for 1 hour at 4° C. with either 10 μM 16,16-dimethyl PGE2 or DMSO control in StemSpan media. CXCR4 cell-surface protein expression was assessed 1, 6 and 24 hours after the end of treatment by flow cytometry.

[3] = tested on: Human umbilical cord blood cells; Lin(−)CD34^+ cells isolated after treatment; experiment: Gene expression arrays after treatment of whole cord blood; assay type: cell-based
Description: Further experiments were performed to determine if CD34^+ cells responded to 16,16-dimethyl PGE2 when cells were treated in the context of a whole cord blood clinical treatment protocol. Human umbilical cord blood cells were incubated for 120 minutes at 37° C. with vehicle or 10 μM 16,16-dimethyl PGE2 (See FIGS. 17A-17D). After the incubation, Lin(−) CD34^+ cells were isolated using Miltenyi magnetic sorting. Biotin-labeled aRNA was prepared from the cells, and gene expression profiles were analyzed. […]
These experiments were repeated using human whole cord blood cells to determine if the CD34^+ expression results can be translated to the clinical setting. […] After the incubation, Lin(−)CD34^+ cells were isolated, labeled aRNA was prepared from the cells, and gene expression profiles were analyzed. […]
After treatment, the cells were washed with LMD/5% HSA medium, centrifuged for 10 minutes at 650× g at room temperature and resuspended in a cold selection buffer (phosphate buffered saline (PBS) with no Ca^+ or Mg^+; 2 mM EDTA; and 0.5% HSA). […] Once the Lin-CD34^+ cells were isolated from the treated whole cord blood, an aliquot was analyzed by flow cytometry to assess purity. […]

[4] = tested on: Whole cord blood cells or CD34^+ cells; experiment: Cell viability assay (7-AAD staining); assay type: cell-based, human
Description: Whole cord blood cells or CD34^+ cells obtained from Stem Cell Technologies (Vancouver, Canada) were aliquoted equally in Eppendorf tubes and treated ex vivo at a range of 16,16-dimethyl PGE2 concentrations (10 μM to 100 μM) or DMSO control; temperatures (4° C., 22° C., or 37° C.) for 60 or 120 minutes in LMD/5% HSA media. After treatment, an aliquot of the incubated cells were assayed using 7-Amino-Actinomycin D (7-AAD) staining as an indicator of cell death. One million whole cord blood were stained with 5 μL of 7AAD staining solution (BD Bioscience, San Jose, Calif.), or 200,000 CD34^+ cord blood cells were stained with 1 μL 7-AAD solution. Cells were analyzed on a Guava EasyCyte 8HT System (Millipore) and with the FlowJo software package (Tree Star Inc., Ashland, Oreg.). A separate aliquot of the same cells were also taken for assessment of proliferation potential using CFU-C assays (discussed below in Example 4).

With `CCCCC(C)(C)[C@H](O)/C=C/[C@H]1[C@H](O)CC(=O)[C@@H]1C/C=C\CCCC(=O)O` [16,16-dimethyl PGE2] the “number of hematopoietic progenitor cells (FIG. 19A)” value ([1]; 37° C. incubation) was “increases the number of hematopoietic progenitor cells”, the CFU-S12 number ([1]; 4° C. for 1 hour) was 8.5±1.3 colonies and the CFU-S12 number ([1]; 37° C. for 1 hour) was 11.2±1.5. The “CFU-S number compared to DMSO treated cells” value ([1]; murine bone marrow, 4° C. treatment) was “small increase in CFU-S number”, the “CXCR4 expression after treatment at 4° C.” value ([2]; 4° C.) was “did not result in an increase in CXCR4 expression” and the “CD34+ cord blood cells with detectable CXCR4 expression” value ([2]; 1 hour after treatment) was 48%. The “CD34+ cord blood cells with detectable CXCR4 expression” value ([2]; 6 hours post-treatment) was 34.7%, the “level of CXCR4 compared to DMSO treated cells” value ([2]; 24 hours post-treatment) was “substantially the same” and the “response of whole cord blood (more than 99% Lineage+ cells)” value ([3]; 10 μM, 37° C., 2 hours, FIGS. 17A-17D) was “did not respond to 16,16-dimethyl PGE2 in a similar manner”. The “concentration giving the maximal gene expression signature” value ([3]; whole cord blood treated 120 minutes at 37° C., Lin(−)CD34+ cells isolated) was 10 µM, the “cell viability (FIG. 10)” value ([4]; CD34+ cells, 10 μM, 120 minutes, 37° C. vs vehicle or 4° C.) was “does not decrease cell viability” and the “cell viability (7-AAD)” value ([4]; whole cord blood cells or CD34+ cells, high temperatures, relatively long incubation periods vs other conditions) was “did not decrease cell viability”.
